Converted amounts (≈) assume the structure as drawn. “And” between values parts separate entries of the source, which are not always exact repeats. Identical values can stand only once. Like-named read-outs stand apart in the source and are kept apart here.
Experiments:
M. kansasii CIT11/06 = experiment: In vitro antimycobacterial evaluation (alamarBlue, 96 well plate); type: cell-based; details: Mycobacterium kansasii, CIT11/06, 120 h, Middlebrook broth, 37 °C 5 days, read-out: MIC/IC90 M. kansasii
M. absessus CIT21/06 = experiment: as above; type: cell-based; details: Middlebrook broth, 37 °C overnight, read-out: MIC/IC90 M. absessus
[1] = system: Mycobacterium avium complex CIT19/06; experiment: as above; type: cell-based; details: 120 h, Middlebrook broth, 37 °C 5 days, read-out: MIC/IC90 M. avium complex
[2] = Lipophilicity determination by RP-HPLC (capacity factor k / log k); type: physicochemical; details: C18 column, isocratic MeOH 55.0% / H2O 45.0%
Description: A Waters Alliance 2695 XE HPLC separation module and Waters Photodiode Array Detector 2996 (Waters Corp., Milford, MA, USA) were used. A Symmetry® C18 5 μm, 4.6 × 250 mm, Part No. WAT054275, (Waters Corp., Milford, MA, USA) chromatographic column was used. The HPLC separation process was monitored by Millennium32® Chromatography Manager Software, Waters 2004 (Waters Corp., Milford, MA, USA). A mixture of MeOH p.a. (55.0%) and H2O-HPLC– Mili-Q Grade (45.0%) was used as a mobile phase. The total flow of the column was 0.9 mL/min, injection 30 μL, column temperature 30 °C and sample temperature 10 °C. The detection wavelength 210 nm was chosen. The KI methanolic solution was used for the dead time (tD) determination. Retention times (tR) were measured in minutes.
The capacity factors k were calculated using the Millennium32® Chromatography Manager Software according to formula k = (tR - tD)/tD, where tR is the retention time of the solute, whereas tD denotes the dead time obtained via an unretained analyte. Log k, calculated from the capacity factor k, is used as the lipophilicity index converted to log P scale.

M. smegmatis MC2155 = experiment: In vitro antimycobacterial evaluation (alamarBlue, 96 well plate); type: cell-based; details: Mycolicibacterium smegmatis, Middlebrook broth, 37 °C overnight, read-out: MIC/IC90 M. smegmatis
[3] = system: photosynthetic electron transport (PET) in spinach chloroplasts; parameters: method as in earlier work; details: standard, read-out: PET reduction IC50; cited from earlier work
Candida glabrata 20/I = experiment: In vitro antifungal broth microdilution test; type: cell-based; details: Nakaseomyces glabratus, 20/I, 35 °C, RPMI 1640 pH 7.0, CLSI M27-A2 (IC80 value)
[4] = system: Trichosporon beigelii 1188; experiment: In vitro antifungal broth microdilution test; type: cell-based; details: Trichosporon beigelii, 1188, 35 °C, RPMI 1640 pH 7.0, CLSI M27-A2 (IC80 value), read-out: MIC TB
Description: Fluconazole (FLU) was used as the standard of a clinically used antimycotic drug. The procedure was performed with twofold dilution of the compounds in RPMI 1640 (Sevapharma a.s., Prague, Czech Republic) buffered to pH 7.0 with 0.165 mol of 3-morpholino-propane-1-sulfonic acid (MOPS, Sigma, Germany). The final concentrations of the compounds ranged from 500 to 0.975 μmol/L. Drug–free controls were included. The MIC determination was performed according to the CLSI (formerly NCCLS) reference protocol M27-A2 for yeasts (IC80 value) and M38-A for moulds (IC50 value). […] The values of MICs were determined after 24 and 48 h of static incubation at 35 °C. For T. mentagrophytes, the final MICs were determined after 72 and 120 h of incubation.

Candida tropicalis 156 = experiment: In vitro antifungal broth microdilution test; type: cell-based; details: Candida tropicalis, 156, 35 °C, RPMI 1640 pH 7.0, CLSI M27-A2 (IC80 value)
Candida krusei ATCC 6258 = experiment: In vitro antifungal broth microdilution test; type: cell-based; details: Pichia kudriavzevii, ATCC6258, 35 °C, RPMI 1640 pH 7.0, CLSI M27-A2 (IC80 value)
[5] = system: Aspergillus fumigatus 231; experiment: In vitro antifungal broth microdilution test; type: cell-based; details: Aspergillus fumigatus, 231, 35 °C, RPMI 1640 pH 7.0, CLSI M38-A (IC50 value)
[6] = system: Candida albicans ATCC 44859; experiment: In vitro antifungal broth microdilution test; type: cell-based; details: Candida albicans, ATCC44859, 35 °C, RPMI 1640 pH 7.0, CLSI M27-A2 (IC80 value)
[7] = system: Trichophyton mentagrophytes 445; experiment: In vitro antifungal broth microdilution test; type: cell-based
Absidia corymbifera 272 = experiment: In vitro antifungal broth microdilution test; type: cell-based; details: Lichtheimia corymbifera, 272, 35 °C, RPMI 1640 pH 7.0, CLSI M38-A (IC50 value)
[8] = system: photosynthetic electron transport (PET) in spinach chloroplasts; experiment: Inhibition of photosynthetic electron transport (PET) in spinach chloroplasts, DCPIP photoreduction; type: biochemical, Spinacia oleracea L.; details: DCPIP as electron acceptor, phosphate buffer pH 7.2, read-out: PET reduction IC50
Description: Chloroplasts were prepared from spinach (Spinacia oleracea L.) according to Masarovicova and Kralova. The inhibition of photosynthetic electron transport (PET) in spinach chloroplasts was determined spectrophotometrically (Genesys 6, Thermo Scientific, USA) using an artificial electron acceptor 2,6-dichlorophenol-indophenol (DCIPP) according to Kralova et al. and the rate of photosynthetic electron transport was monitored as a photoreduction of DCPIP. The measurements were carried out in phosphate buffer (0.02 mol/L, pH 7.2) containing sucrose (0.4 mol/L), MgCl2 (0.005 mol/L) and NaCl (0.015 mol/L). The chlorophyll content was 30 mg/L in these experiments and the samples were irradiated (~100 W/m^2) from 10 cm distance with a halogen lamp (250 W) using a 4 cm water filter to prevent warming of the samples (suspension temperature 22 °C). The studied compounds were dissolved in DMSO due to their limited water solubility. […] The inhibitory efficiency of the studied compounds was expressed by IC50 values, i.e., by molar concentration of the compounds causing 50% decrease in the oxygen evolution rate relative to the untreated control.

[9] = Trichophyton mentagrophytes, 445, 120 h, pH 7
[10] = Trichophyton mentagrophytes, 445, 72h, RPMI 1640 pH 7.0, CLSI M38-A (IC50 value)

SMILES	MIC (M. kansasii CIT11/06)	MIC (M. absessus CIT21/06)	MIC [1]	log k [2]	MIC (M. smegmatis MC2155)	MIC (Candida glabrata 20/I; 24h)	MIC (Candida glabrata 20/I; 48h)	MIC ([4]; 24h)	MIC ([4]; 48h)	MIC (Candida tropicalis 156; 24h)	MIC (Candida tropicalis 156; 48h)	MIC (Candida krusei ATCC 6258; 24h)	MIC (Candida krusei ATCC 6258; 48h)	MIC ([5]; 24h)	MIC ([5]; 48h)	MIC ([6]; 24h)	MIC ([6]; 48h)	MIC [7, 9]	MIC [7, 10]	MIC (Absidia corymbifera 272; 24h)	further results
CC(=O)Oc1ccc(O)c(C=Cc2ccc3c(Cl)cc(Cl)c(O)c3n2)c1 [Compound 13, 5,7-Dichloro-2-[2-(2-hydroxy-5-acetoxyphenyl)vinyl]quinolin-8-ol]	> 300 µg/mL	> 300 µg/mL	> 300 µg/mL	1.5864	100 µg/mL (≈ 256 µM)																
CN(C)C(=O)Nc1ccc(Cl)c(Cl)c1 [DCMU, 3-(3,4-dichlorophenyl)-1,1-dimethylurea]																					IC50 [3]: ~1900 nM and 1900 nM
NC(=O)c1cnccn1 [PZA, pyrazinamide, reference compound]	> 100 µg/mL	> 100 µg/mL	> 100 µg/mL		> 100 µg/mL																
Oc1ccc(C=Cc2ccc3c(Cl)cc(Cl)c(O)c3n2)cc1 [Compound 10, 5,7-Dichloro-2-[2-(4-hydroxyphenyl)vinyl]quinolin-8-ol]	> 300 µg/mL	> 300 µg/mL	> 300 µg/mL	1.5866	150 µg/mL (≈ 452 µM)	125 µM (≈ 41.5 µg/mL)	> 125 µM	125 µM (≈ 41.5 µg/mL)	> 125 µM	125 µM (≈ 41.5 µg/mL)	> 125 µM	125 µM (≈ 41.5 µg/mL)	> 125 µM	125 µM (≈ 41.5 µg/mL)	125 µM (≈ 41.5 µg/mL)	125 µM (≈ 41.5 µg/mL)	> 125 µM	62.5 µM (≈ 20.8 µg/mL)	15.6 µM (≈ 5.19 µg/mL)	31.2 µM (≈ 10.4 µg/mL)	MIC (Absidia corymbifera 272; 48h): 62.5 µM (≈ 20.8 µg/mL); IC50 [8]: 660 µM
Oc1c(Cl)cc(Cl)c2ccc(C=Cc3ccc(C=Cc4ccc5c(Cl)cc(Cl)c(O)c5n4)cc3)nc12 [Compound 14, 5,7-Dichloro-2-(2-{4-[2-(5,7-dichloro-8-hydroxyquinolin-2-yl)vinyl]phenyl}vinyl)quinolin-8-ol]	40 µg/mL (≈ 72.2 µM)	130 µg/mL (≈ 235 µM)	> 300 µg/mL	2.5760	40 µg/mL (≈ 72.2 µM)	0.49 µM (≈ 0.272 µg/mL)	1.95 µM (≈ 1.08 µg/mL)	3.9 µM (≈ 2.16 µg/mL)	15.6 µM (≈ 8.66 µg/mL)	1.95 µM (≈ 1.08 µg/mL)	7.81 µM (≈ 4.33 µg/mL)	0.98 µM (≈ 0.543 µg/mL)	1.95 µM (≈ 1.08 µg/mL)	3.9 µM (≈ 2.16 µg/mL)	15.6 µM (≈ 8.66 µg/mL)	0.98 µM (≈ 0.543 µg/mL)	3.9 µM (≈ 2.16 µg/mL)	7.81 µM (≈ 4.33 µg/mL)	3.9 µM (≈ 2.16 µg/mL)	15.6 µM (≈ 8.66 µg/mL)	MIC (Absidia corymbifera 272; 48h): 31.2 µM (≈ 17.3 µg/mL); IC50 [8]: 334 µM
Oc1cc(O)cc(C=Cc2ccc3c(Cl)cc(Cl)c(O)c3n2)c1 [Compound 12, 5,7-Dichloro-2-[2-(3,5-dihydroxyphenyl)vinyl]quinolin-8-ol]	> 300 µg/mL	> 300 µg/mL	> 300 µg/mL	1.5867	> 100 µg/mL	> 125 µM	> 125 µM	> 125 µM	> 125 µM	> 125 µM	> 125 µM	> 125 µM	> 125 µM	125 µM (≈ 43.5 µg/mL)	125 µM (≈ 43.5 µg/mL)	> 125 µM	> 125 µM	15.6 µM (≈ 5.44 µg/mL)	15.6 µM (≈ 5.44 µg/mL)	62.5 µM (≈ 21.8 µg/mL)	MIC (Absidia corymbifera 272; 48h): 62.5 µM (≈ 21.8 µg/mL); IC50 [8]: 341 µM
NNC(=O)c1ccncc1 [INH, isoniazid, reference compound]	< 10 µg/mL	> 100 µg/mL	< 10 µg/mL		39 µg/mL (≈ 284 µM)																
Oc1ccc(C=Cc2ccc3c(Cl)cc(Cl)c(O)c3n2)c(O)c1 [Compound 11, 5,7-Dichloro-2-[2-(2,4-dihydroxyphenyl)vinyl]quinolin-8-ol]	> 100 µg/mL	> 100 µg/mL	> 100 µg/mL	1.5858	100 µg/mL (≈ 287 µM)																

Reference: article PMC6256987, “Investigating the Activity Spectrum for Ring-Substituted 8-Hydroxyquinolines” (Molecules, 2010)
